From patent US12134620B2 (ARAXES PHARMA LLC, priority 2018, dated 2024) come the findings set out here.

The assay has as its target T1, KRAS G12C 1-169, his-tagged protein, GDP-loaded (Homo sapiens, UniProt P01116, G12C).
T1 construct: KRAS G12C 1-169, his-tagged protein, GDP-loaded; His tag
The experiment in a line: Biochemical assay: covalent modification of KRAS G12C, analysed by mass spectrometry (RapidFire/TOF or Q-Exactive). Also: time not given here. The format is binding. Particulars: Modification activity, modification percentage from MS peak intensities. In short, it runs like this: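 Covalent adduct formation was quantified by intact-protein mass spectrometry, either TOF or C4 LC-Q Exactive Plus, as percent modified versus unmodified protein after deconvolution. Compounds at 8 or 32 μM final were incubated with 0.5 or 2 μM GDP-bound KRAS G12C(1-169)-His in Hepes/NaCl/MgCl2 buffer before acid quench.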
On to `C=CC(=O)N1CC2(CCN(c3nc(OC[C@@H]4CCCN4C)nc(-c4c(F)ccc5cnn(C6CC6)c45)c3C#N)C2)C1` [Compound I-124, 4-(2-acryloyl-2,6-diazaspiro[3.4]octan-6-yl)-6-(1-cyclopropyl-6-fluoro-1H-indazol-7-yl)-2-(((S)-1-methylpyrrolidin-2-yl)methoxy)pyrimidine-5-carbonitrile], for which the Binding % result is “+ (+ indicates binding activity greater than 0% and up to 50%)”.

As for `C=CC(=O)N1CC2(CCN(c3nc(OCC(=O)N4CCCC4)nc(-c4c(C)ccc5[nH]ncc45)c3C#N)C2)C1` [Compound I-127, 4-(2-acryloyl-2,6-diazaspiro[3.4]octan-6-yl)-6-(5-methyl-1H-indazol-4-yl)-2-(2-oxo-2-(pyrrolidin-1-yl)ethoxy)pyrimidine-5-carbonitrile], the Binding % result was “+ (+ indicates binding activity greater than 0% and up to 50%)”.

Turning to `C=CC(=O)N1CC2(CC(=O)N(c3nc(N4CCOCC4)nc(-c4c(C)ccc5[nH]ncc45)c3C#N)C2)C1` [Compound I-130, 4-(2-acryloyl-7-oxo-2,6-diazaspiro[3.4]octan-6-yl)-6-(5-methyl-1H-indazol-4-yl)-2-morpholinopyrimidine-5-carbonitrile], the Binding % entry is given as “++ (++ indicates binding activity from 50 to 85%)”.

With `C=CC(=O)N1CC2(CCN(c3nc(-c4c(C)ccc5[nH]ncc45)ncc3C#N)C2)C1` [Compound I-141, 4-(2-acryloyl-2,6-diazaspiro[3.4]octan-6-yl)-2-(5-methyl-1H-indazol-4-yl)pyrimidine-5-carbonitrile], the Binding % result was “+ (+ indicates binding activity greater than 0% and up to 50%)”.

With `C=CC(=O)N1CC2(CCN(c3nc(-c4c(C)ccc5[nH]ncc45)c(C#N)c(N4CCOCC4)n3)C2)C1` [Compound I-142, 2-(2-acryloyl-2,6-diazaspiro[3.4]octan-6-yl)-4-(5-methyl-1H-indazol-4-yl)-6-morpholinopyrimidine-5-carbonitrile], the Binding % entry is “+ (+ indicates binding activity greater than 0% and up to 50%)”.

`C=CC(=O)N1CC2(CCN(c3nc(-c4c(C)ccc5[nH]ncc45)cc(N4CC(N(C)C)C4)n3)C2)C1` [Compound I-143, 1-(6-(4-(3-(dimethylamino)azeti-din-1-yl)-6-(5-methyl-1H-indazol-4-yl)pyrimidin-2-yl)-2,6-diazaspiro[3.4]octan-2-yl)prop-2-en-1-one]: the Binding % result is “+ (+ indicates binding activity greater than 0% and up to 50%)”.

As for `C=CC(=O)N1CC2(CCN(c3nc(-c4c(C)ccc5[nH]ncc45)cc(N4CCOCC4)n3)C2)C1` [Compound I-144, 1-(6-(4-(5-methyl-1H-indazol-4-yl)-6-morpholinopyrimidin-2-yl)-2,6-diazaspiro[3.4]octan-2-yl)prop-2-en-1-one], the Binding % result is “+ (+ indicates binding activity greater than 0% and up to 50%)”.

As for `C=CC(=O)N1CC2(CCN(c3ncc(C#N)c(-c4c(C)ccc5[nH]ncc45)n3)C2)C1` [Compound I-145, 2-(2-acryloyl-2,6-diazaspiro[3.4]octan-6-yl)-4-(5-methyl-1H-indazol-4-yl)pyrimidine-5-carbonitrile], the Binding % entry is “+ (+ indicates binding activity greater than 0% and up to 50%)”.

As for `C=CC(=O)N1CC2(CCN(c3nc(OCCCN(C)C)cc(-c4c(C)ccc5[nH]ncc45)n3)C2)C1` [Compound I-146, 1-(6-(4-(3-(dimethylamino)pro-poxy)-6-(5-methyl-1H-indazol-4-yl)pyrimidin-2-yl)-2,6-diazaspiro[3.4]octan-2-yl)prop-2-en-1-one], the Binding % entry is “+ (+ indicates binding activity greater than 0% and up to 50%)”.

Turning to `C=CC(=O)N1CC2(CCN(c3nc(-c4c(C)ccc5[nH]ncc45)c(C#N)c(N4CC(N(C)C)C4)n3)C2)C1` [Compound I-147, 2-(2-acryloyl-2,6-diazaspiro[3.4]octan-6-yl)-4-(3-(dimethylamino)azeti-din-1-yl)-6-(5-methyl-1H-indazol-4-yl)pyrimidine-5-carbonitrile], the Binding % result is “+ (+ indicates binding activity greater than 0% and up to 50%)”.
